Test results taken from patent publication US8163909B2, “Substituted hydroxyethyl amine compounds as beta-secretase modulators and methods of use” (Amgen Inc., priority 2007, dated 2012).
Where two headings read alike, the source gives them in different places.

How the values were obtained:
[1] = test system: Aβ40 in conditioned medium of cells stably expressing Amyloid Precursor Protein (APP); assay: In vitro BACE cell-based assay (Aβ40 in conditioned medium, sandwich ELISA); conditions: Homo sapiens;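 further: compounds added as a dilution series, secreted peptide quantified by europium time-resolved fluorescence readout, potency fitted from percent of control versus compound concentration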
[2] = target: Beta Secretase enzyme (BACE) (Homo sapiens, UniProt P56817); assay: In vitro enzymatic BACE FRET (fluorescence resonance energy transfer) assay; format: biochemical;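 further: fluorescence read after 1 h with 50 nM quenched peptide substrate spanning the BACE cleavage site, in pH 4.2 acetate buffer containing 10% DMSO and nonionic detergent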
[3] = Microsomal stability assay, rat liver microsomes;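 further: rat liver microsomes (0.25 mg/mL) with about 1 µM compound plus 1 mM NADPH, pH 7.4, 37 °C for 30 min, parent left measured by LC-MS/MS against 0 min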
CYP3A4 (CYP3A) = CYP3A4 (CYP3A) (Homo sapiens, UniProt P08684); assay: in vitro; conditions: microsomes, pH 7.4
CYP2D6 = CYP2D6 (Homo sapiens, UniProt P10635); assay: CYP2D6 inhibition assay (bufuralol, pooled human liver microsomes)
[4] = Microsomal stability assay, human liver microsomes;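 further: pooled human liver microsomes at 0.25 mg/mL with 1 µM compound and NADPH at 37 °C, pH 7.4, for 30 min, unchanged parent quantified by LC-MS/MS against the 0 min sample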
[5] = 2D6 IC50, CYP enzyme inhibition
[6] = BACE enzyme assay, IC50's in uM, read-out: BACE1 FRET assay
[7] = 2D6 IC50 (uM), CYP enzyme inhibition
[8] = HEK293, HEK cells, read-out: HEK cell assay (IC50)
[9] = read-out: BACE1 FRET assay (IC50)
[10] = HEK293, HEK cell-based assay IC50, read-out: HEK cell assay
[11] = BACE enzyme assay IC50, read-out: BACE1 FRET assay
[12] = 2D6 IC50 (uM), CYP2D6 inhibition
[13] = HEK293, HEK cells, read-out: HEK cell assay
[14] = BACE enzyme assay, read-out: BACE1 FRET assay

Chain of CYP3A4 (CYP3A) (P08684 2-503): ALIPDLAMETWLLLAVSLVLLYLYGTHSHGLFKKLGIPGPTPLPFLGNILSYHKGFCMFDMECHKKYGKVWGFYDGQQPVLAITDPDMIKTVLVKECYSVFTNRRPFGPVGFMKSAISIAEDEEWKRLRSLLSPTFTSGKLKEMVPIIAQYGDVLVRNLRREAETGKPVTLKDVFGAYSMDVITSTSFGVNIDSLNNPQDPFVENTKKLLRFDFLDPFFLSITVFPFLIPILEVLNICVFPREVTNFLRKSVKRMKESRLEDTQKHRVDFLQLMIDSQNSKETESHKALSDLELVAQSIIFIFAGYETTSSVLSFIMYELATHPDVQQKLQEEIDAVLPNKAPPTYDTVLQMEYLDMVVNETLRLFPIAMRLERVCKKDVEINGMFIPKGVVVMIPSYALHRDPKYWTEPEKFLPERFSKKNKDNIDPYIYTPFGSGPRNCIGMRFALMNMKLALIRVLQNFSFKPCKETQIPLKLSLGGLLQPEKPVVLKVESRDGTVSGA
Chain of Beta Secretase enzyme (BACE) (P56817 46-501): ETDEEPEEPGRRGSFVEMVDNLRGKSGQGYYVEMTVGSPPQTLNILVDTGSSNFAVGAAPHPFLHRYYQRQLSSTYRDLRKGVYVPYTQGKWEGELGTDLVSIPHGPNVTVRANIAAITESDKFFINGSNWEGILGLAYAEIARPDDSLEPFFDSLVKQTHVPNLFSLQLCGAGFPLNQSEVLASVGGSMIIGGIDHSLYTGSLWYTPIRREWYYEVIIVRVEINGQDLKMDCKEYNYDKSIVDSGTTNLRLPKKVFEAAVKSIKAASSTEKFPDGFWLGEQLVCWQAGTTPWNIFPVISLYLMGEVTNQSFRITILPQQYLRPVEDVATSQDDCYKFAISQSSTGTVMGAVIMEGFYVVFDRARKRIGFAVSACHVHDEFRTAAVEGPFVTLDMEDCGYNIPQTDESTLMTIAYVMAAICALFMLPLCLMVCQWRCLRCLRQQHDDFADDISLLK
Chain of CYP2D6 (P10635 whole entry): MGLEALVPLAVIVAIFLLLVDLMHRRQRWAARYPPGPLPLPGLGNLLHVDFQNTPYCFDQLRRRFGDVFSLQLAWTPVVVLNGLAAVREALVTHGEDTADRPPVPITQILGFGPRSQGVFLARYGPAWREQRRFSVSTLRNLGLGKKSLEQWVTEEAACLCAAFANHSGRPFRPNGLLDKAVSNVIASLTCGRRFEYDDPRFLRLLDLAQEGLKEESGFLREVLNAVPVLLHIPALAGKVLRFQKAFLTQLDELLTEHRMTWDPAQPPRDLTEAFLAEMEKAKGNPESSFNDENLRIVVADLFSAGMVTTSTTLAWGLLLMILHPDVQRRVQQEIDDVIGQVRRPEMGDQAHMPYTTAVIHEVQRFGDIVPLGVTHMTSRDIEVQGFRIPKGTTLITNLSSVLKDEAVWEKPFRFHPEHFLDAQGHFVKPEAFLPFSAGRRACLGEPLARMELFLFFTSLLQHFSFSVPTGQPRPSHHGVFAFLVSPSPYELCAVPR

## COCC(=O)N[C@@H](Cc1cccc(C#N)c1)[C@H](O)CN[C@H]1CC2(CC(F)(F)C2)Oc2ncc(CC(C)(C)C)cc21 [compound 470]
[1]; HEK293, Table 2, HEK cells, read-out: HEK cell assay
  IC50: 0.014 µM
[2]; Table 2, read-out: BACE1 FRET assay
  IC50: 0.004 µM
[3]; rat liver microsomal data
  RLM: 560 µL/min/mg
CYP3A4 (CYP3A)
  IC50: 1100 nM
CYP2D6; [5]
  IC50: 5.8 µM
[4]; human liver microsomal data
  HLM: 579 µL/min/mg

## COCC(=O)N[C@@H](Cc1cc(F)cc(-c2nccs2)c1)[C@H](O)CN[C@H]1CC2(CCC2)Oc2ccc(CC(C)C)cc21 [compound 771, N-((1S,2R)-1-(3-fluoro-5-(1,3-thiazol-2-yl)benzyl)-2-hydroxy-3-(((4S)-6-(2-methylpropyl)-3,4-dihydrospiro[chromene-2,1′-cyclobutan]-4-yl)amino)propyl)-2-methoxyacetamide]
[1]; HEK293, HEK cell-based assay, IC50's in uM, read-out: HEK cell assay
  IC50: 0.04 µM
[2]; [6]
  IC50: 0.005 µM
[3]; rat liver microsomal data
  RLM: 201 µL/min/mg
CYP3A4 (CYP3A)
  IC50: 700 nM
CYP2D6; [7]
  IC50: 0.5 µM
[4]; human liver microsomal data
  HLM: 150 µL/min/mg

## CO[C@H](C)C(=O)N[C@@H](Cc1ccc(O)c(O)c1)[C@H](O)CN[C@H]1CC2(CCC2)Oc2ncc(CC(C)(C)C)cc21 [compound 651]
[1]; [8]
  IC50: 0.012 µM
[2]; [9]
  IC50: 0.008 µM
[3]; rat liver microsomes
  RLM: 147 µL/min/mg
CYP3A4 (CYP3A)
  IC50: 1600 nM
CYP2D6; 2D6 IC50, CYP2D6 inhibition
  IC50: 10.8 µM
[4]; human liver microsomes
  HLM: 171 µL/min/mg

## COCC(=O)N[C@@H](Cc1cc(F)cc(-c2nccs2)c1)[C@H](O)CN[C@H]1CC2(CCC2)Oc2ncc(C3CC3)cc21 [compound 749]
[1]; [10]
  IC50: 0.074 µM
[2]; [11]
  IC50: 0.046 µM
[3]; rat liver microsomes
  RLM: 51 µL/min/mg
CYP3A4 (CYP3A)
  IC50: 300 nM
CYP2D6; [12]
  IC50: 1.6 µM
[4]; human liver microsomes
  HLM: 59 µL/min/mg

## CO[C@H](C)C(=O)N[C@@H](Cc1ccncc1)[C@H](O)CN[C@H]1CC2(CCC2)Oc2ncc(C(F)(F)F)cc21 [compound 653]
[1]; [8]
  IC50: > 10 µM
[2]; [9]
  IC50: 6.74 µM
[3]; rat liver microsomes
  RLM: 114 µL/min/mg
CYP3A4 (CYP3A)
  IC50: 600 nM
CYP2D6; 2D6 IC50, CYP2D6 inhibition
  IC50: 5.8 µM
[4]; human liver microsomes
  HLM: 178 µL/min/mg

## CO[C@H](C)C(=O)N[C@@H](Cc1cc(F)cc(-c2nccs2)c1)[C@H](O)CN[C@H]1CC2(CCC2)Oc2c1cc(CC(C)C)nc2Cl [compound 752]
[1]; [10]
  IC50: 0.067 µM
[2]; [11]
  IC50: 0.009 µM
[3]; rat liver microsomes
  RLM: 137 µL/min/mg
CYP3A4 (CYP3A)
  IC50: 100 nM
CYP2D6; [12]
  IC50: 1.3 µM
[4]; human liver microsomes
  HLM: 166 µL/min/mg

## COCC(=O)N[C@@H](Cc1cccc(F)c1)[C@H](O)CN[C@H]1CC2(CCC2)Oc2c(Br)cc(CC(C)C)cc21 [compound 514]
[1]; [13]
  IC50: 0.128 µM
[2]; [14]
  IC50: 0.003 µM
[3]; rat liver microsomal data
  RLM: 560 µL/min/mg
CYP3A4 (CYP3A)
  IC50: 1500 nM
CYP2D6; [7]
  IC50: 6 µM
[4]; human liver microsomal data
  HLM: 682 µL/min/mg

## CC(C)OCC(=O)N[C@@H](Cc1ccc(F)cc1)[C@H](O)CN[C@H]1CC2(CCC2)Oc2ncc(CC(C)(C)C)cc21 [compound 565]
[1]; [13]
  IC50: 0.267 µM
[2]; [14]
  IC50: 0.049 µM
[3]; rat liver microsomal data
  RLM: 829 µL/min/mg
CYP3A4 (CYP3A)
  IC50: 600 nM
CYP2D6; [7]
  IC50: 23.8 µM
[4]; human liver microsomal data
  HLM: 921 µL/min/mg

## CC(=O)N[C@@H](Cc1ccc2c(c1)OCO2)[C@H](O)CN[C@H]1CC2(CCC2)Oc2ncc(C(F)(F)C(C)(C)C)cc21 [compound 574]
[1]; [13]
  IC50: 0.606 µM
[2]; [14]
  IC50: 0.22 µM
[3]; rat liver microsomal data
  RLM: 146 µL/min/mg
CYP3A4 (CYP3A)
  IC50: 200 nM
CYP2D6; [7]
  IC50: 3.5 µM
[4]; human liver microsomal data
  HLM: 46 µL/min/mg

## COCC(=O)N[C@@H](Cc1cc(Br)cc(-c2nccs2)c1)[C@H](O)CN[C@H]1CC2(CCC2)Oc2ncc(CC(C)(C)C)cc21 [compound 851]
[1]; HEK293, cell-based assay, HEK cells, IC50's in uM, read-out: HEK cell assay
  IC50: 0.057 µM
[2]; [6]
  IC50: 0.013 µM
[3]; rat liver microsomal data
  RLM: 59 µL/min/mg
CYP3A4 (CYP3A)
  IC50: 200 nM
CYP2D6; [5]
  IC50: 0.7 µM
[4]; human liver microsomal data
  HLM: 71 µL/min/mg

## CO[C@H](C)C(=O)N[C@@H](Cc1cccc(F)c1)[C@H](O)CN[C@H]1CC2(CCC2)Oc2c1cc(CC(C)(C)C)nc2-n1ccnc1 [compound 507]
[1]; [13]
  IC50: 0.057 µM
[2]; [14]
  IC50: 0.022 µM
[3]; rat liver microsomal data
  RLM: 95 µL/min/mg
CYP3A4 (CYP3A)
  IC50: 100 nM
CYP2D6; [7]
  IC50: 1.9 µM
[4]; human liver microsomal data
  HLM: 14 µL/min/mg

## CC(=O)N[C@@H](Cc1ccc(F)c(-n2ccnc2)c1)[C@H](O)CN[C@H]1CC2(CCC2)Oc2ncc(CC(C)(C)C)cc21 [Example 426, N-((1S,2R)-3-(((4′S)-6′-(2,2-dimethylpropyl)-3′,4′-dihydrospiro[cyclobutane-1,2′-pyrano[2,3-b]pyridin]-4′-yl)amino)-1-(4-fluoro-3-(1H-imidazol-1-yl)benzyl)-2-hydroxypropyl)acetamide]
[1]; [10]
  IC50: 0.011 µM
[2]; [11]
  IC50: 0.031 µM
[3]; rat liver microsomes
  RLM: 14 µL/min/mg
CYP3A4 (CYP3A)
  IC50: ≤ 30 nM
CYP2D6; [12]
  IC50: 0.1 µM
[4]; human liver microsomes
  HLM: 22 µL/min/mg

## CC(C)(C)Cc1cnc2c(c1)[C@@H](NC[C@@H](O)[C@H](Cc1ccc(F)cc1)NC=O)CC1(CCC1)O2 [compound 540]
[1]; [13]
  IC50: 0.074 µM
[2]; [14]
  IC50: 0.014 µM
[3]; rat liver microsomal data
  RLM: 347 µL/min/mg
CYP3A4 (CYP3A)
  IC50: 1200 nM
CYP2D6; [7]
  IC50: 2.3 µM
[4]; human liver microsomal data
  HLM: 264 µL/min/mg

## CO[C@H](C)C(=O)N[C@@H](Cc1cc(F)cc(F)c1)[C@H](O)CN[C@H]1CC2(CCC2)Oc2c1cc(C1CC1)cc2-n1ccnc1 [compound 707]
[1]; [10]
  IC50: 0.028 µM
[2]; [11]
  IC50: 0.114 µM
[3]; rat liver microsomes
  RLM: 39 µL/min/mg
CYP3A4 (CYP3A)
  IC50: ≤ 30 nM
CYP2D6; [12]
  IC50: 0.6 µM
[4]; human liver microsomes
  HLM: 14 µL/min/mg

## CC(=O)N[C@@H](Cc1cccc(-c2cncs2)c1)[C@H](O)CN[C@H]1CC2(CCC2)Oc2ncc(CC(C)(C)C)cc21 [compound 658, N-((1S,2R)-3-(((4′S)-6′-(2,2-dimethylpropyl)-3′,4′-dihydrospiro[cyclobutane-1,2′-pyrano[2,3-b]pyridin]-4′-yl)amino)-2-hydroxy-1-(3-(1,3-thiazol-5-yl)benzyl)propyl)acetamide]
[1]; [8]
  IC50: 0.01 µM
[2]; [9]
  IC50: 0.006 µM
[3]; rat liver microsomes
  RLM: 120 µL/min/mg
CYP3A4 (CYP3A)
  IC50: 100 nM
CYP2D6; 2D6 IC50, CYP2D6 inhibition
  IC50: 0.3 µM
[4]; human liver microsomes
  HLM: 130 µL/min/mg

## C[C@H](F)C(=O)N[C@@H](Cc1cccc(F)c1)[C@H](O)CN[C@H]1CC2(CCC2)Oc2ncc(CC(C)(F)F)cc21 [compound 608]
[1]; [8]
  IC50: 0.016 µM
[2]; [9]
  IC50: 0.008 µM
[3]; rat liver microsomes
  RLM: 183 µL/min/mg
CYP3A4 (CYP3A)
  IC50: 4500 nM
CYP2D6; 2D6 IC50, CYP2D6 inhibition
  IC50: 12.2 µM
[4]; human liver microsomes
  HLM: 232 µL/min/mg

## CC[C@H](OC)C(=O)N[C@@H](Cc1ccc(F)cc1)[C@H](O)CN[C@H]1CC2(CCC2)Oc2ncc(CC(C)(C)C)cc21 [compound 572]
[1]; [13]
  IC50: 0.094 µM
[2]; [14]
  IC50: 0.102 µM
[3]; rat liver microsomal data
  RLM: 569 µL/min/mg
CYP3A4 (CYP3A)
  IC50: 200 nM
CYP2D6; [7]
  IC50: 8.1 µM
[4]; human liver microsomal data
  HLM: 290 µL/min/mg

## CO[C@H](C)C(=O)N[C@@H](Cc1ccc2c(c1)OCO2)[C@H](O)CN[C@@H]1c2cc(CC(C)(C)C)cnc2OC2(CCC2)[C@@H]1F [compound 554]
[1]; [13]
  IC50: 1.02 µM
[2]; [14]
  IC50: 0.057 µM
[3]; rat liver microsomal data
  RLM: 173 µL/min/mg
CYP3A4 (CYP3A)
  IC50: 200 nM
CYP2D6; [7]
  IC50: 6.5 µM
[4]; human liver microsomal data
  HLM: 63 µL/min/mg

## COCC(=O)N[C@@H](Cc1ccc(F)cc1)[C@H](O)CN[C@H]1CC2(CCC2)Oc2c(-c3ccncc3)cc(CC(C)(C)C)cc21 [compound 562]
[1]; [13]
  IC50: 0.021 µM
[2]; [14]
  IC50: 0.027 µM
[3]; rat liver microsomal data
  RLM: 60 µL/min/mg
CYP3A4 (CYP3A)
  IC50: 100 nM
CYP2D6; [7]
  IC50: 3.6 µM
[4]; human liver microsomal data
  HLM: 24 µL/min/mg

## COCC(=O)N[C@@H](Cc1cc(F)cc(F)c1)[C@H](O)CN[C@H]1CC2(CCC2)Oc2c1cc(CC(C)(C)C)nc2Nc1ccccc1 [compound 599]
[1]; [8]
  IC50: 0.395 µM
[2]; [9]
  IC50: 0.018 µM
[3]; rat liver microsomes
  RLM: 125 µL/min/mg
CYP3A4 (CYP3A)
  IC50: 6400 nM
CYP2D6; 2D6 IC50, CYP2D6 inhibition
  IC50: ≥ 27 µM
[4]; human liver microsomes
  HLM: 120 µL/min/mg
